# Experimental data taken from patent publication US4339580A, “Piperazinylalkoxyindanes and acid addition salts thereof” (Mitsubishi Chemical Industries, Limited, priority 1979, dated 1982).
# Read-outs that look alike come from different tables or passages of the source.
# Legend:
# [1] = test system: fighting developed by electric shock; assay: anti-fighting activity (suppressing or taming effect against electric foot shock induced fighting); type: in vivo, ddy male mice; conditions: Mus musculus, 0.05 h, read-out: ED50 taming effect
# Method: (§1) As controls, chlorodiazepoxide which is known as an anti-anxiety agent or minor tranquilizer and a known Compound 40 were used. The results are summarized in terms of 50% effective dose (ED50, mg/kg P.O.) in Table 1 below.
# (§2) The animals used were ddy male mice (weighing 20 to 22 g) and they were tested for anti-fighting and anti-morphine actions as indications of anti-anxiety action. The anti-fighting activity of the test compound was evaluated by its suppressing or taming effect against fighting which was developed by applying an electric shock (28 V-DC, 4-5 mA, 3 min.) through a grid to the foot of the animal [R. E. Tedeschi, D. H. Tedeschi, A. Mucha, L. Cook, P. A. Mattis, E. J. Fellows, J. Pharmacol. exp. Therap., 125, 28 (1959)] The anti-morphine activity was evaluated according to the method of Takagi et al. by the suppressing effect against a tail reaction induced by administration of 20 mg/kg i.p. of morphine [H. Takagi, T. Kamioka, S. Kobayashi, Y. Suzuki and K. Tachikawa, Japanese J. of Pharmacology, 66, 107 (1970)].
# [2] = LD50 (Litchfield-Wilcoxon method); conditions: mouse, in vivo, PO, mice
# Method: as §2
# The values for LD50 were calculated by the Litchfield-Wilcoxon method [J. T. Litchfield and F. Wilcoxon, J. Pharmacol. exp. Therap., 96, 99 (1949)].
# [3] = muscle relaxant action, traction test; type: in vivo, ddy male mice; conditions: Mus musculus, po, read-out: ED50 traction test
# Method: as §1, §2
# Muscle relaxant action was evaluated by a traction test [S. Courvoisier, R. Ducrot, L. Julou, "Psychotropic Drugs" Ed. by S. Garattini, V. Ghetti, p. 313 (Elsevier) 1957].
# [4] = test system: tail reaction induced by morphine; assay: anti-morphine activity (suppression of tail reaction induced by 20 mg/kg i.p. morphine); type: in vivo, ddy male mice; conditions: Mus musculus, read-out: ED50 anti-morphine activity
# Method: as §1, §2
# [5] = test system: anti-fighting and anti-morphine actions; assay: anti-anxiety activity (anti-fighting and anti-morphine actions as indications); type: in vivo, ddy male mice; conditions: PO, mice; versus chlorodiazepoxide and Compound 40
# Method: as §1, §2
# [6] = PO, mice, electric shock 28 V-DC, 4-5 mA, 3 min.
# [7] = PO, mice, morphine 20 mg/kg i.p.
SMILES,ED50 ([1]; po),LD50 [2],ED50 [3],ED50 ([4]; po),"ED50 [1, 6]","ED50 [4, 7]",anti-anxiety activities compared with controls [5]
"CNC1=Nc2ccc(Cl)cc2C(c2ccccc2)=[N+]([O-])C1 [Chlorodiazepoxide, reference compound]",12.5 mg/kg,720 mg/kg,8.3 mg/kg,13 mg/kg,,,
"c1ccc(N2CCN(CCCOc3ccc4c(c3)CCC4)CC2)cc1 [Compound 1, 5-[3-(4-phenyl-1-piperazinyl)propoxy]indane]",,> 1500 mg/kg,14.1 mg/kg,,6.6 mg/kg,6.3 mg/kg,superior to those of chlorodiazepoxide and Compound 40
"Fc1ccc(N2CCN(CCCOc3ccc4c(c3)CCC4)CC2)cc1 [Compound 4, 5-{3-[4-(4-fluorophenyl)-1-piperazinyl]propoxy}indane]",,> 2000 mg/kg,28 mg/kg,,7.5 mg/kg,6 mg/kg,superior to those of chlorodiazepoxide and Compound 40
"Fc1ccc(N2CCN(CCCCOc3ccc4c(c3)CCC4)CC2)cc1 [Compound 5, 5-{4-[4-(4-fluorophenyl)-1-piperazinyl]butoxy}indane]",,> 1100 mg/kg,21.5 mg/kg,,12 mg/kg,11.1 mg/kg,superior to those of chlorodiazepoxide and Compound 40
Clc1cccc(N2CCN(CCCOc3ccc4c(c3)CCC4)CC2)c1 [Compound 17],,> 2000 mg/kg,45 mg/kg,,12.6 mg/kg,15.5 mg/kg,superior to those of chlorodiazepoxide and Compound 40
"Fc1cc2c(cc1OCCCN1CCN(c3ccccc3)CC1)CCC2 [Compound 18, 6-fluoro-5-[3-(4-phenyl-1-piperazinyl)propoxy]indane]",,> 2000 mg/kg,14.5 mg/kg,,2.9 mg/kg,10.6 mg/kg,superior to those of chlorodiazepoxide and Compound 40
"Fc1ccc(N2CCN(CCCOc3cc4c(cc3F)CCC4)CC2)cc1 [Compound 19, 6-fluoro-5-{3-[4-(4-fluorophenyl)-1-piperazinyl]propoxy}indane]",,> 2000 mg/kg,17.5 mg/kg,,1 mg/kg,12.5 mg/kg,superior to those of chlorodiazepoxide and Compound 40
"Fc1cc2c(cc1OCCCN1CCN(c3cccc(Cl)c3)CC1)CCC2 [Compound 21, 6-fluoro-5-{3-[4-(3-chlorophenyl)-1-piperazinyl]propoxy}indane]",,1500 to 2000 mg/kg,88 mg/kg,,14.5 mg/kg,13.8 mg/kg,superior to those of chlorodiazepoxide and Compound 40
"Cc1cc2c(cc1OCCCN1CCN(c3ccccc3)CC1)CCC2 [Compound 24, 6-methyl-5-[3-(4-phenyl-1-piperazinyl)propoxy]indane]",,> 2000 mg/kg,46 mg/kg,,8.5 mg/kg,16 mg/kg,superior to those of chlorodiazepoxide and Compound 40
"COc1cc2c(cc1OCCCN1CCN(c3ccc(F)cc3)CC1)CCC2 [Compound 30, 6-methoxy-5-{3-[4-(4-fluorophenyl)-1-piperazinyl]propoxy}indane]",,> 1000 mg/kg,12.5 mg/kg,,13 mg/kg,10.2 mg/kg,superior to those of chlorodiazepoxide and Compound 40
"O=C(CCCN1CCN(c2ccc(F)cc2)CC1)c1ccc2c(c1)CCC2 [Compound 40, reference compound]",,1000 to 1500 mg/kg,57 mg/kg,,20 mg/kg,15.5 mg/kg,
